# Measurements taken from patent US8178530B2, “Imidazolopyrazine compounds useful for the treatment of degenerative and inflammatory diseases” (Janssen Pharmaceutica NV, priority 2006, dated 2012).
# System: MMP1 expression by SFs
# Assay: 'MMP assay': MMP1 expression by 'complex trigger' activated synovial fibroblasts (MMP1 ELISA)
# Format: cell-based, human
# Details: Homo sapiens, Fibroblast, RASFs, 48 hrs
row,Compound,EC50 [nM]
1,NC(=O)c1ccc(Nc2ncc(-c3cn[nH]c3)n3ccnc23)cc1 [Compound 11],> 1000
2,CN1CCN(c2ccc(Nc3ncc(-c4cn[nH]c4)n4ccnc34)cc2)CC1 [Compound 14],> 1000
3,"CCN(CC)CCNC(=O)c1ccc(Nc2ncc(-c3cn[nH]c3)n3ccnc23)cc1 [Compound 32, N-(2-Diethylamino-ethyl)-4-[5-(1H-pyrazol-4-yl)-imidazo[1,2-a]pyrazin-8-ylamino]-benzamide]",> 1000
4,O=C(NCc1cccnc1)c1ccc(Nc2ncc(-c3cn[nH]c3)n3ccnc23)cc1 [Compound 35],> 1000
5,NS(=O)(=O)c1ccc(Nc2ncc(-c3cn[nH]c3)n3ccnc23)cc1 [Compound 36],> 1000
6,O=C(Nc1ccccc1)c1ccc(Nc2ncc(-c3cn[nH]c3)n3ccnc23)cc1 [Compound 41],> 1000
7,O=C(c1ccc(Nc2ncc(-c3cn[nH]c3)n3ccnc23)cc1)N1CCOCC1 [Compound 45],> 1000
8,O=C(NCCN1CCOCC1)c1ccc(Nc2ncc(-c3cn[nH]c3)n3ccnc23)cc1 [Compound 53],> 1000
9,O=C(NC1CCNC1)c1ccc(Nc2ncc(-c3cn[nH]c3)n3ccnc23)cc1 (centres unmarked) [Compound 55],> 1000
10,CCNCCNC(=O)c1ccc(Nc2ncc(-c3cn[nH]c3)n3ccnc23)cc1 [Compound 56],> 1000
11,CN1CCC(NC(=O)c2ccc(Nc3ncc(-c4cn[nH]c4)n4ccnc34)cc2)C1 (centres unmarked) [Compound 64],> 1000
12,"CCN(CC)CCNS(=O)(=O)c1ccc(Nc2ncc(-c3cn[nH]c3)n3ccnc23)cc1 [Compound 69, N-(2-Diethylaminoethyl)-4-[5-(1H-pyrazol-4-yl)imidazo[1,2-a]pyrazin-8-ylamino]benzenesulfonamide]",> 1000
13,CS(=O)(=O)c1ccc(Nc2ncc(-c3cn[nH]c3)n3ccnc23)cc1 [Compound 71],> 1000
14,CCN(CC)CCNC(=O)c1ccc(Nc2ncc(-c3cn[nH]c3)n3ccnc23)cc1F [Compound 82],> 1000
15,CCN(CC)CCNC(=O)c1ccc(Nc2ncc(-c3cn[nH]c3)n3ccnc23)c(F)c1 [Compound 83],> 1000
16,CN(C)c1ccc(CNC(=O)c2ccc(Nc3ncc(-c4cn[nH]c4)n4ccnc34)cc2)cc1 [Compound 89],501 to 1000
17,"O=C(NCc1ccc(O)cc1)c1ccc(Nc2ncc(-c3cn[nH]c3)n3ccnc23)cc1 [Compound 90, N-(4-Hydroxybenzyl)-4-[5-(1H-pyrazol-4-yl)imidazo[1,2-a]pyrazin-8-ylamino]benzamide]",101 to 500
18,O=C(NCCc1cccnc1)c1ccc(Nc2ncc(-c3cn[nH]c3)n3ccnc23)cc1 [Compound 93],> 1000
19,CCN(CC)CCNS(=O)(=O)c1ccc(Nc2ncc(-c3ccc(C(N)=O)cc3)n3ccnc23)cc1 [Compound 98],501 to 1000
20,CN(C)C(CNC(=O)c1ccc(Nc2ncc(-c3cc[nH]c(=O)c3)n3ccnc23)cc1)c1cccnc1 (centres unmarked) [Compound 114],> 1000
21,CNC(=O)c1ccc(-c2cnc(Nc3ccc(N4CCN(C)CC4)cc3)c3nccn23)cc1 [Compound 116],> 1000
22,CN1CCN(c2ccc(Nc3ncc(-c4csc(C(N)=O)c4)n4ccnc34)cc2)CC1 [Compound 118],> 1000

row,Compound,EC50 [nM]
1,"Cc1[nH]ncc1-c1cnc(Nc2ccc(N3CCN(C)CC3)cc2)c2nccn12 [Compound 119, (4-(4-Methylpiperazin-1-yl)phenyl)-[5-(5-methyl-1H-pyrazol-4-yl)imidazo[1,2-a]pyrazin-8-yl]amine]",> 1000
2,Cc1cc(C(N)=O)ccc1-c1cnc(Nc2ccc(N3CCN(C)CC3)cc2)c2nccn12 [Compound 120],> 1000
3,CN1CCN(c2ccc(Nc3ncc(-c4ccc(C(N)=O)c(Cl)c4)n4ccnc34)cc2)CC1 [Compound 124],> 1000
4,"CN1CCN(c2ccc(Nc3ncc(-c4ccnc(F)c4)n4ccnc34)cc2)CC1 [Compound 125, [5-(2-Fluoro-pyridin-4-yl)-imidazo[1,2-a]pyrazin-8-yl]-[4-(4-methyl-piperazin-1-yl)-phenyl]-amine]",> 1000
5,"CN1CCN(c2ccc(Nc3ncc(-c4ccc(C(N)=O)s4)n4ccnc34)cc2)CC1 [Compound 127, (4-(4-Methylpiperazin-1-yl)phenyl)-[5-(2-carboxamido-5-thienyl)imidazo[1,2-a]pyrazin-8-yl]amine]",101 to 500
6,CN1CCN(c2ccc(Nc3ncc(-c4ccc(C(N)=O)cn4)n4ccnc34)cc2)CC1 [Compound 128],> 1000
7,"CN1CCN(c2ccc(Nc3ncc(-c4ccc(C(N)=O)nc4)n4ccnc34)cc2)CC1 [Compound 129, 5-{8-[4-(4-Methyl-piperazin-1-yl)-phenylamino]-imidazo[1,2-a]pyrazin-5-yl}-pyridine-2-carboxylic acid amide]",> 1000
8,"CN1CCN(c2ccc(Nc3ncc(-c4ccc(C(N)=O)cc4)n4ccnc34)cc2Cl)CC1 [Compound 136, 4-{8-[3-Chloro-4-(4-methyl-piperazin-1-yl)-phenylamino]-imidazo[1,2-a]pyrazin-5-yl}-benzamide]",> 1000
9,C[C@@H]1CN(C)[C@@H](C)CN1c1ccc(Nc2ncc(-c3ccc(C(N)=O)cc3)n3ccnc23)cc1 [Compound 137],101 to 500
10,CN1CCN(c2ccc(Nc3ncc(-c4cscn4)n4ccnc34)cc2)CC1 [Compound 138],> 1000
11,"CN1CCN(c2ccc(Nc3ncc(-c4ccc(C(N)=O)o4)n4ccnc34)cc2)CC1 [Compound 139, 5-{8-[4-(4-Methyl-piperazin-1-yl)-phenylamino]-imidazo[1,2-a]pyrazin-5-yl}-furan-2-carboxylic acid amide]",> 1000
12,CN1CCN(c2ccc(Nc3ncc(-c4cc(F)c(C(N)=O)c(F)c4)n4ccnc34)cc2)CC1 [Compound 140],> 1000
13,Cn1cnnc1-c1ccc(Nc2ncc(-c3ccc(C(N)=O)cc3)n3ccnc23)cc1 [Compound 141],501 to 1000
14,CC(C)N1CCN(c2ccc(Nc3ncc(-c4ccc(C(N)=O)cc4)n4ccnc34)cc2)CC1 [Compound 142],501 to 1000
15,CN1CCN(c2ccc(Nc3ncc(-c4ccc(C(N)=O)cc4)n4ccnc34)cc2)CC1 [Compound 143],501 to 1000
16,NC(=O)c1ccc(-c2cnc(Nc3ccc(N4CCCCC4)cc3)c3nccn23)cc1 [Compound 144],101 to 500
17,"CN1CCN(c2ccc(Nc3ncc(-c4cc(C(N)=O)cs4)n4ccnc34)cc2)CC1 [Compound 145, 5-{8-[4-(4-Methyl-piperazin-1-yl)-phenylamino]-imidazo[1,2-a]pyrazin-5-yl}-thiophene-3-carboxylic acid amide]",501 to 1000
18,NC(=O)c1ccc(-c2cnc(Nc3ccc(OCCN4CCOCC4)cc3)c3nccn23)cc1F [Compound 146],501 to 1000
19,CN1CCC(Oc2ccc(Nc3ncc(-c4ccc(C(N)=O)c(F)c4)n4ccnc34)cc2)CC1 [Compound 149],> 1000
20,"c1cn2c(-c3cn[nH]c3)cnc(Nc3ccc(OCCN4CCOCC4)cc3)c2n1 [Compound 150, [4-(2-Morpholin-4-yl-ethoxy)-phenyl]-[5-(1H-pyrazol-4-yl)-imidazo[1,2-a]pyrazin-8-yl]-amine]",> 1000
21,CN1CCN(c2ccc(Nc3ncc(-c4cc(C(N)=O)co4)n4ccnc34)cc2)CC1 [Compound 151],101 to 500

# Same assay, conditions: RASFs, 48 hrs
row,Compound,EC50 [nM]
1,"4-(8-{4-[1-(2,2,2-Trifluoroethyl)piperidin-4-yl]phenylamino}imidazo[1,2-a]pyrazin-5-yl)thiophene-2-carboxylic acid amide [Compound 192]",501 to 1000
